Measurements published in patent publication US20110104167A1, “Compositions and Methods for Diagnosing and Treating Insulin Resistance” (YEDA RESEARCH AND DEVELOPMENT CO. LTD., priority 2004, published 2011).
Where a SMILES comes first, the peptide text is derived from it. The star is where a group is joined. Cbz = O=C(OCc1ccccc1)*

Legend:
[1] = biological target: insulin receptor (IR) of Fao rat hepatoma cells (rat (Fao rat hepatoma cells)) (UniProt P15127); assay: cell-based or functional assay
insulin receptor = settings: Fao cells, 10^−7M insulin, prolonged; cited from earlier work
CHO-T cells [2] = assay: Insulin-induced Tyr phosphorylation of IRS-1 in stably transfected CHO-T cells; format: cell-based, Chinese Hamster
Method: FIGS. 1a-c show Tyrosine (Tyr) phosphorylation of IRS-1^7A and its interactions with IR. FIG. 1a—monolayers of CHO-T cells stably overexpressing either WT-IRS-1 (CHO-T^WT) or IRS-1^7A (CHO-T^7A) at 80% confluence (grown in 6 cm plates) were deprived of serum for 16 h prior to the experiment. The cells were then incubated with insulin for the indicated times at 37° C. Cells extracts (100 μg) were resolved on 7.5 SDS-PAGE and immunoblotted with the indicated antibodies. The results are of a representative of six experiments. FIG. 1b—IRS-1 was isolated from CHO-T^WT or CHO-T^7A cells. In vitro phosphorylation of IRS-1^WT and IRS-1^7A by Insulin receptor (IR) was effected as described under “Materials and Experimental Procedures” section of the Examples section which follows. The reaction mixture was subjected to immunoprecipitation with anti-IRS-1 antibodies. Immunocomplexes were resolved on 7.5 SDS-PAGE and immunoblotted with anti-phosphotyrosine (pY) or anti IRS-1 antibodies. FIG. 1c—CHO-T^WT (expressing wild type IRS-1) and CHO-T^7A (expressing the 7A IRS-1 mutant) cells were deprived of serum for 16 h prior to the experiment. The cells were stimulated with 100 nM insulin for the indicated times at 37° C. Cell extracts were prepared and samples (1 mg) were bound to immobilized IR. […]

S408 of IRS-1 = assay: In vivo phosphorylation of S408 of IRS-1 in cultured Fao cells; format: cell-based, rat
Method: Following 48 hours, the cells were starved for 16 hours. The medium was removed and the cells were incubated with or without 100 nM insulin for the indicated times (FIG. 10a). Alternatively, the cells were incubated with insulin, SMase or calyculin A as indicated (FIG. 10b). Cytosolic extracts (100 μg) were resolved on 7.5% SDS-PAGE and immunoblotted with anti-phospho-Ser 408 antibody or anti-PY antibodies as indicated.
Infection of Fao cells with adenovirus—Fao cells were grown in RPMI medium containing 10% FCS. At 70% confluence cells were infected with adenoviruses harboring the gene of interest at a titer of 7 10^7 PFU/ml. After incubation for 2 h hours at 37° C., the virus-containing medium was diluted 1:5 in fresh RPMI medium. After 24 h the medium was replaced with a fresh RPMI medium containing 10% FCS. 48 h post-infection the Fao cells were starved in serum-free RPMI for 16 h and were then subjected to the indicated treatments as described below.
Treatment of cells and preparation of extracts—Virally-infected Fao cells were grown as described above. Nave Rat hepatoma (Fao) cells or CHO cells were grown in RPMI medium supplemented with 10% fetal calf serum as described (22). At 70-80% confluence, cells were deprived of serum for 16 h prior to each experiment, and were then incubated with inducers of insulin resistance and/or insulin. […]

IRS-1 = assay: Effect of proteosome inhibitor on IRS-1 protein content and Tyr phosphorylation; format: cell-based; settings: not shown
CHO-T cells [3] = assay: Phosphorylation (mobility shift) of truncated IRS-1 PH/PTB constructs in CHO-T cells; format: cell-based, Chinese Hamster; settings: 25 nM calyculin A 60 min
Method: (§1) FIGS. 7a-c show In vivo phosphorylation of PH/PTB-L in response to insulin. CHO-T cells were transiently transfected with pcDNA3-Myc-PH/PTB (1-1290 nt) or with an insert-free plasmid (control). Twenty-four hours post-transfection, the cells were deprived of serum for 16 h and were then treated with insulin for the indicated time periods. Cell extracts (100 μg) were resolved on 10% SDS-PAGE and immunoblotted with anti-pY or anti-Myc antibodies (FIG. 7a). In parallel, samples (100 μg, 40 μl) were incubated with 3 units (U) of calf intestine phosphatase (CIP) at 37° C. for 1 h. The samples were resolved on 10% SDS-PAGE and immunoblotted with anti-Myc antibodies (FIG. 7b). The results are of a representative of two experiments. FIG. 7c—CHO^PH/PTB-L cells were starved in serum-free F12 medium for 16 h. The cells were treated for 30 min with the indicated inhibitors prior to being treated with 100 nM insulin for 30 min. Cell extracts were prepared, samples were resolved on 10% SDS-PAGE and were immunoblotted with anti-Myc antibodies. Results are of a representative of three experiments.
FIGS. 8a-b show the effects of insulin on Serine phosphorylation of Myc-PH/PTB-L^7A CHO-T cells were transiently transfected with constructs encoding Myc-PH/PTB-L (1-1290 nt), either wild type (WT) or the 7A mutant (FIG. 8a). Alternatively, the cells were transfected or with the constructs encoding Myc-PH/PTB-L (1-1290 nt; 1-430 aa) or Myc-PH/PTB-S (1-1095 nt; 1-365 aa, FIG. 8b). Following 24 hours in culture, the cells were incubated in serum-free F12 medium for 16 ch prior to being treated with insulin for the indicated times. Cell extracts were resolved on 10% SDS-PAGE and immunoblotted with anti-Myc antibodies. Results are of a representative of three experiments.
FIGS. 9a-b show the effects of insulin and calyculin A on Ser phosphorylation of PH/PTB-L mutants. FIG. 9a—CHO-T cells were transiently transfected with constructs expressing either Myc-PH/PTB^WT or the following PH/PTB mutants: S336A, S407A, S408A, S407/8A and S3A (S336/407/408A). Following 24 hours the cells were deprived of serum for 16 h, and were treated with insulin for the indicated times. Cell extracts were resolved on 10% SDS-PAGE and immunoblotted with anti-Myc antibodies. The results are of a representative of two-three experiments. FIG. 9b—CHO-T cells were transiently transfected with pcDNA3-myc-PH/PTB^WT or pcDNA3-myc-PH/PTB^S408A. Following 24 hours the cells were starved for 16 h and were then treated either with 100 nM insulin for 30 min or with 25 nM calyculin A for 60 min. Cell extracts were resolved on 10% SDS-PAGE and were immunoblotted with anti-Myc antibodies. Results are of a representative of two experiments.
Plasmids construction—i. Myc-tagged-IRS-1 The cDNA, encoding for the mouse IRS-1 in the pCNA-3 expression plasmid (35) was digested with Hind III and BspE-1. This deleted a 9 by fragment from the 5′-IRS-1 cDNA that was replaced by a double stranded synthetic oligonucleotide encoding the Myc tag and the missing amino-acids of IRS-1 (bold) […] (SEQ ID NO. 9). ii. Myc-tagged truncated IRS-1 (aa 1-430, PH/PTB-L) Myc-tagged mouse IRS-1 cDNA (N-terminus, 1-1290 nt), encoding for the first 430 aa of IRS-1, was PCR-amplified with the following primers. 5′-CAGGATCCGCATATGGAACAAAAGCTC-3′ (sense) (SEQ ID NO. 10); 5′-GAGAATTCATCAGGGACTAGAACCATA-3′ (anti-sense) (SEQ ID NO. 11), using as a template the pcDNA3-Myc-IRS-1 plasmid. The PCR product was ligated into a pGEM-T. The insert was excised from pGEM-T with BamH I and EcoR I (italic), and then was ligated into pcDNA3 at the same restriction sites to generate pcDNA3-Myc-IRS-1^PH/PTB-L. iii. Myc-tagged truncated IRS-1 (aa 1-365, PH/PTB-S) Myc-tagged mouse IRS-1 cDNA (N-terminus, 1-1095 nt), encoding for the first 365 aa of IRS-1, was PCR-amplified with the following primers: 5′ […]-3′ (sense) (SEQ ID NO. 12); 5′ […] 3′ (anti sense) (SEQ ID NO. 13) using as a template the pcDNA3-Myc-IRS-1. […]

Myc-PH/PTB-L = biological target: T1, Myc-PH/PTB-L (Mus musculus, UniProt P35569); assay: In vitro dephosphorylation of Myc-PH/PTB-L with calf intestine alkaline phosphatase; format: biochemical; settings: 3 units CIP, 37° C., 1 h
T1 construct: Myc-tagged truncated IRS-1 (aa 1-430, PH/PTB-L); expressed in transfected cells; host or cells: CHO-T cells, transient transfection with pcDNA3-Myc-PH/PTB (1-1290 nt)
T1 sequence (P35569 1-430): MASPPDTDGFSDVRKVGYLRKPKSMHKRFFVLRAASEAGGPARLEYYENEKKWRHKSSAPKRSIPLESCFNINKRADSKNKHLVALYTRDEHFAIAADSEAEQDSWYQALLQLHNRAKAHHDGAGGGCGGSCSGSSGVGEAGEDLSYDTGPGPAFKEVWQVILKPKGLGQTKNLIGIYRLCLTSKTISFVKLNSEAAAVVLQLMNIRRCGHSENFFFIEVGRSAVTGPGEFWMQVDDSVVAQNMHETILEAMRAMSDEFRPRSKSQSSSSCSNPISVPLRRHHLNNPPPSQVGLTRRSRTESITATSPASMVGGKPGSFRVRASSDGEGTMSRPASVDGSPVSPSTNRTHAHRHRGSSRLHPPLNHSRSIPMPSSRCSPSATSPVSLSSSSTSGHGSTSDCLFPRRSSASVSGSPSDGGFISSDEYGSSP
Method: as §1

Chain of insulin receptor (IR) of Fao rat hepatoma cells (rat (Fao rat hepatoma cells)) (P15127 27-1383 limits assumed): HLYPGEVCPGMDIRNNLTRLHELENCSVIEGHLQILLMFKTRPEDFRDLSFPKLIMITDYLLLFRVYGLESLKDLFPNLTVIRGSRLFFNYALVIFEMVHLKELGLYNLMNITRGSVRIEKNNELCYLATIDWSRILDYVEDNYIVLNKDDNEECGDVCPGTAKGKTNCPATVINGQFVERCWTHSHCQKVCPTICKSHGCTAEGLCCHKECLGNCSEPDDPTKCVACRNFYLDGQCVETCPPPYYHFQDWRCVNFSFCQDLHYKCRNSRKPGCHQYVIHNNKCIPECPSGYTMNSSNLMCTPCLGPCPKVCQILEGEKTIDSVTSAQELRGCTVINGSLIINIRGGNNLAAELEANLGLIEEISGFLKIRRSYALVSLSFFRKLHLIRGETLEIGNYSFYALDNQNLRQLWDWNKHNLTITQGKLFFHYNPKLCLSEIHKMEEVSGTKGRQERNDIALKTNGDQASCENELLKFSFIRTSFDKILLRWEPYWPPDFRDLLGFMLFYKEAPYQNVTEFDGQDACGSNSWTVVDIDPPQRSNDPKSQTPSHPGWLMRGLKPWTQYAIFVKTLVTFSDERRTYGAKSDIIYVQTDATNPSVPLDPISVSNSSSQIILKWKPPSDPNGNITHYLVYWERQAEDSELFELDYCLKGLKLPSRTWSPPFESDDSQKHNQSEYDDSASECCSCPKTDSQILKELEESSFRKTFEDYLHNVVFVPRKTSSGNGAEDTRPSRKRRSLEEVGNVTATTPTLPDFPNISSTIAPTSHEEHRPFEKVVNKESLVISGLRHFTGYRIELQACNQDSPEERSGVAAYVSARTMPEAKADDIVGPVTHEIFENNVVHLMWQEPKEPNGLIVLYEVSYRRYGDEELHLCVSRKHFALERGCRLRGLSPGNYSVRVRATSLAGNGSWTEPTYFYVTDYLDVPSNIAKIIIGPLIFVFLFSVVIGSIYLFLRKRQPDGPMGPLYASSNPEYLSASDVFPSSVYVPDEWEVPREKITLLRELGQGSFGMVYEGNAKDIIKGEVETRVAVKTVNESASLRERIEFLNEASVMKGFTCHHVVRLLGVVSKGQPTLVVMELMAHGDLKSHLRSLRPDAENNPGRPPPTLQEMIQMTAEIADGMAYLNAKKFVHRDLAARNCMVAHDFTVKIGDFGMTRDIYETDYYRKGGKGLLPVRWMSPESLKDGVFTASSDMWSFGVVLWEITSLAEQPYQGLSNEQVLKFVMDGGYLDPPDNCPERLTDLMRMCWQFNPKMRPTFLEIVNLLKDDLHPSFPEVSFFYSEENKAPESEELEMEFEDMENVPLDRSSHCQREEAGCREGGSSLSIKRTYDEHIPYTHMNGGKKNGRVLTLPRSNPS

Myc-IRS-1^WT (Myc-tagged wild-type mouse IRS-1 expressed in Fao cells from an adenoviral construct) (from UniProt P35569 4-1233)
reduction of Tyr phosphorylation content following prolonged (60 min) insulin treatment [1]: 55%

insulin: human insulin used as stimulus
reduction in ability of IRS-1 to interact with the insulin receptor (insulin receptor): > 40% | insulin treatment time at which maximal Tyr phosphorylation of IRS-1 was detected (CHO-T cells [2]): 2 min | incubation time required for maximal phosphorylation of Ser408 (S408 of IRS-1; 100 nM insulin): 30 to 60 min

CC(C)C[C@@H](C=O)NC(=O)[C@H](CC(C)C)NC(=O)[C@H](CC(C)C)NC(=O)OCc1ccccc1 [MG-132] (Cbz-Leu-Leu-Leu-aldehyde)
effect on protein content and Tyr phosphorylation patterns of IRS-1^7A and IRS-1^WT (IRS-1): did not alter significantly

COC[C@@H]([C@H](O)[C@H](O)C(=O)NCC[C@H](C)c1nc(/C=C/C[C@@H]2O[C@]3(C[C@@H](O)[C@@H]2C)O[C@H]([C@H](C[C@H](O)[C@H](C)[C@H](O)[C@H](C)/C=C(C)/C(C)=C/C=C/C(C)=C\C#N)OC)[C@H](OP(=O)(O)O)C3(C)C)co1)N(C)C [Calyculin A]
in vivo phosphorylation of S408 (S408 of IRS-1; Fao cells infected with IRS-1^WT): induced phosphorylation of S408 | Ser phosphorylation (mobility shift) of Myc-PH/PTB-L^WT (CHO-T cells [3]): triggers Ser phosphorylation | mobility shift when Ser408 was mutated to Ala (CHO-T cells [3]): significantly reduced

B1: CIP: calf intestine alkaline phosphatase (protein, UniProt P19111 20-506, looked up)
Intestinal-type alkaline …: LVPVEEEDPAFWNRQAAQALDVAKKLQPIQTAAKNVILFLGDGMGVPTVTATRILKGQMNGKLGPETPLAMDQFPYVALSKTYNVDRQVPDSAGTATAYLCGVKGNYRTIGVSAAARYNQCKTTRGNEVTSVMNRAKKAGKSVGVVTTTRVQHASPAGAYAHTVNRNWYSDADLPADAQMNGCQDIAAQLVNNMDIDVILGGGRKYMFPVGTPDPEYPDDASVNGVRKRKQNLVQAWQAKHQGAQYVWNRTALLQAADDSSVTHLMGLFEPADMKYNVQQDHTKDPTLQEMTEVALRVVSRNPRGFYLFVEGGRIDHGHHDDKAYMALTEAGMFDNAIAKANELTSELDTLILVTADHSHVFSFGGYTLRGTSIFGLAPSKALDSKSYTSILYGNGPGYALGGGSRPDVNDSTSEDPSYQQQAAVPQASETHGGEDVAVFARGPQAHLVHGVEEETFVAHIMAFAGCVEPYTDCNLPAPTTATSIPD
effect on mobility shift of PH/PTB-L from insulin-treated cells (Myc-PH/PTB-L): abolished the mobility shift
